Test results published in the supplement of paper PMC10307832.

Legend:
Experiment in all cases: relative viability (nuclei count vs DMSO), 5 days (fraction); higher = more cells survive
[1] = compound: C(C(=O)C(=O)O)Br [Bromopyruvate] + CC(=O)c1c(C)c2cnc(Nc3ccc(N4CCNCC4)cn3)nc2n(C2CCCC2)c1=O [Palbociclib] (partner 0.5 µM)
How it was run: (§1)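 Each reported value is a median over duplicate plates. It expresses relative viability: treated-well nuclei count divided by vehicle-well nuclei count. Lung cancer cell lines in 1536-well plates were dosed by pin tool a day after seeding, alone with one drug or with a fixed anchor-drug dose plus five library-drug doses (not always all listed) in √10 steps, and nuclei were counted after 5 days.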

[2] = compound: CC(O)(CS(=O)(=O)c1ccc(F)cc1)C(=O)Nc1ccc(C#N)c(C(F)(F)F)c1 [Bicalutamide] + Nc1ncn([C@H]2C[C@H](O)[C@@H](CO)O2)c(=O)n1 [Decitabine] (partner 2 µM)
How it was run: as §1

[3] = compound: C(C(=O)C(=O)O)Br [Bromopyruvate] + Nc1nc2[nH]cc(CCc3ccc(C(=O)N[C@@H](CCC(=O)O)C(=O)O)cc3)c2c(=O)[nH]1 [Pemetrexed] (partner 0.2 µM)
How it was run: as §1

Bicalutamide + Alpelisib = compound: CC(O)(CS(=O)(=O)c1ccc(F)cc1)C(=O)Nc1ccc(C#N)c(C(F)(F)F)c1 [Bicalutamide] + Cc1nc(NC(=O)N2CCC[C@H]2C(N)=O)sc1-c1ccnc(C(C)(C)C(F)(F)F)c1 [Alpelisib] (partner 2 µM)
How it was run: as §1

Row | Cell Line | relative viability ([1]; first compound 1 µM) | relative viability ([1]; first compound 3.162 µM) | relative viability ([1]; first compound 10 µM) | relative viability ([1]; first compound 31.62 µM) | relative viability ([1]; first compound 100 µM) | relative viability ([2]; first compound 0.08 µM) | relative viability ([2]; first compound 0.253 µM) | relative viability ([2]; first compound 0.8 µM) | relative viability ([2]; first compound 2.53 µM) | relative viability ([3]; first compound 1 µM) | relative viability ([3]; first compound 3.162 µM) | relative viability ([3]; first compound 10 µM) | relative viability ([3]; first compound 31.62 µM) | relative viability ([3]; first compound 100 µM) | relative viability (Bicalutamide + Alpelisib; first compound 0.08 µM) | relative viability (Bicalutamide + Alpelisib; first compound 0.8 µM) | relative viability (Bicalutamide + Alpelisib; first compound 2.53 µM) | relative viability (Bicalutamide + Alpelisib; first compound 0.253 µM)
1 | NCI-H441 | 0.242 | 0.242 | 0.256 | 0.222 | 0.255 | 0.264 | 0.23 | 0.22 | 0.257 | 0.255 | 0.282 | 0.299 | 0.274 | 0.271 | 0.968 | 0.856 | 0.876 | –
2 | NCI-H322M | 0.463 | 0.438 | 0.447 | 0.421 | 0.454 | 0.656 | 0.494 | 0.649 | 0.735 | 0.614 | 0.663 | 0.592 | 0.585 | 0.637 | 0.948 | 0.882 | 0.74 | 0.772
3 | NCI-H1993 | 0.536 | 0.661 | 0.813 | 0.629 | 0.775 | 0.678 | 0.514 | 0.647 | 0.627 | 0.629 | 0.649 | 0.633 | 0.605 | 0.582 | – | 0.708 | 0.717 | 0.693
4 | COR-L23 | 0.239 | 0.283 | 0.232 | 0.255 | 0.178 | 0.476 | 0.389 | 0.455 | 0.367 | 0.184 | 0.194 | 0.195 | 0.183 | 0.202 | 0.846 | 0.843 | 0.727 | 0.757
5 | NCI-H2126 | 0.34 | 0.335 | 0.306 | 0.375 | 0.343 | 0.572 | 0.537 | 0.582 | 0.528 | 0.702 | 0.636 | 0.66 | 0.677 | 0.695 | 0.742 | 0.76 | 0.74 | 0.707
6 | LC-2-ad | 0.528 | 0.487 | 0.466 | 0.488 | 0.499 | 0.808 | 0.831 | 0.857 | 0.909 | 0.294 | 0.287 | 0.269 | 0.298 | 0.298 | 0.99 | 0.852 | 0.894 | 0.921
7 | NCI-H1915 | 0.524 | 0.532 | 0.538 | 0.514 | 0.56 | 0.28 | 0.26 | 0.282 | 0.278 | 0.496 | 0.41 | 0.497 | 0.511 | 0.481 | 1.07 | 1.14 | 1.01 | 1.12
8 | NCI-H1793 | 0.291 | 0.354 | 0.325 | 0.365 | 0.341 | 0.524 | – | 0.574 | 0.423 | 0.91 | 1.18 | 0.989 | 0.906 | 1.16 | 0.763 | 0.827 | 0.687 | 0.636
9 | NCI-H2085 | 0.491 | 0.469 | 0.489 | 0.539 | 0.521 | 0.555 | 0.601 | 0.553 | 0.525 | 0.974 | 0.954 | 0.992 | 0.937 | 0.963 | 0.895 | 0.958 | 0.879 | 1.04
10 | NCI-H2228 | 0.791 | 0.9 | 0.665 | 0.85 | 0.775 | – | – | – | – | 0.343 | 0.339 | 0.337 | 0.357 | 0.341 | 0.779 | 0.908 | 0.58 | 0.805
11 | NCI-H596 | – | – | – | – | – | 0.975 | 1.02 | 1.09 | 0.983 | 0.546 | 0.522 | 0.55 | 0.48 | 0.59 | 0.521 | 0.588 | 0.568 | 0.493
12 | ChaGo-K-1 | 0.93 | 0.947 | 0.979 | 0.87 | 0.876 | 0.524 | 0.46 | 0.561 | 0.551 | 0.266 | 0.254 | 0.261 | 0.27 | 0.259 | – | – | – | –
13 | NCI-H522 | 1.02 | 1.03 | 1 | 1.02 | 1.1 | 0.585 | 0.575 | 0.71 | 0.632 | 0.902 | 1.25 | 1.24 | 1.07 | 1.11 | – | – | – | –
14 | NCI-H1299 | – | – | – | – | – | – | – | – | – | – | – | – | – | – | 1.11 | 1.08 | 1.11 | 1.13
15 | NCI-H1650 | 0.328 | 0.328 | 0.309 | 0.368 | 0.345 | 0.452 | 0.369 | 0.45 | 0.436 | 0.39 | 0.435 | 0.37 | 0.406 | 0.266 | – | – | – | –
16 | NCI-H1648 | 0.211 | 0.242 | 0.283 | 0.298 | 0.328 | – | – | 0.475 | 0.458 | 0.661 | 0.813 | 0.689 | 0.651 | 0.728 | – | – | – | –
17 | NCI-H2342 | 0.487 | 0.55 | 0.476 | 0.485 | 0.458 | 0.742 | 0.717 | 0.756 | 0.843 | 0.848 | 0.779 | 0.847 | 0.636 | 0.74 | – | – | – | –
18 | SW 900 | 0.524 | 0.486 | 0.536 | 0.589 | 0.5 | 0.416 | 0.413 | 0.5 | 0.476 | 0.487 | 0.463 | 0.555 | 0.446 | 0.472 | – | – | – | –
19 | A549 | – | – | – | – | – | 0.351 | 0.271 | 0.259 | 0.248 | – | – | – | – | – | 0.878 | 0.889 | 0.733 | 0.685
20 | NCI-H727 | 0.702 | 0.654 | 0.663 | 0.646 | 0.648 | 0.994 | 0.847 | 0.896 | 0.991 | – | – | – | – | – | 0.63 | 0.471 | 0.483 | 0.546
21 | NCI-H1563 | – | – | – | – | – | – | – | – | – | 0.815 | 0.717 | 0.823 | 0.674 | 0.757 | 0.944 | 0.897 | 0.779 | 0.95
22 | ABC-1 | 0.662 | – | – | – | 0.792 | 1.25 | 0.929 | 1.23 | 0.847 | – | – | – | – | – | 1.03 | 0.997 | 0.992 | 1.21
